Converted amounts (≈) assume the structure as drawn. “And” between values parts separate entries of the source, which are not always exact repeats. Equal values may be shown once.
How the values were obtained:
Assay in all cases: ≥ marks a high value that may be exact or a test limit, other limits are often not marked, values filed in µg/mL are converted to µM
[1] = test system: Klebsiella pneumoniae ATCC 43816
Staphylococcus aureus = test system: Staphylococcus aureus
[2] = test system: Pseudomonas aeruginosa ATCC 27853
[3] = test system: Enterococcus faecalis NCTC 12697
[4] = test system: Candida albicans NCYC 1467
[5] = test system: Escherichia coli NCTC 10418
[6] = test system: Staphylococcus aureus ATCC 12493
[7] = test system: Staphylococcus aureus NCTC 10788
[8] = test system: Staphylococcus aureus ATCC 29213
[9] = test system: Escherichia coli ATCC 25922
[10] = test system: Bacillus subtilis ATCC 6633
[11] = test system: Proteus mirabilis CCUG 26767
[12] = test system: Enterococcus faecalis ATCC 19433
[13] = test system: Salmonella enterica subsp. enterica serovar Typhimurium LT2
[14] = test system: Klebsiella pneumoniae ATCC 13883
[15] = test system: Enterococcus faecium ATCC 19434
Escherichia coli ML-35 = test system: Escherichia coli ML-35
[16] = test system: Salmonella enterica subsp. enterica serovar Typhimurium ATCC 14028
[17] = test system: Staphylococcus aureus 710A
Bacillus megaterium Bm11 = test system: Bacillus megaterium Bm11
Escherichia coli UB1005 = test system: Escherichia coli UB1005
[18] = test system: Staphylococcus epidermidis ATCC 12228
[19] = test system: Staphylococcus aureus ATCC 25923
[20] = test system: Lactiplantibacillus plantarum 8014
Escherichia coli 078 = test system: Escherichia coli 078
[21] = test system: Candida albicans CGMCC 2.2086
[22] = test system: Pseudomonas aeruginosa PAO1
[23] = test system: Lacticaseibacillus rhamnosus 7469
[24] = test system: Candida tropicalis CGMCC 2.1975
[25] = test system: Salmonella enterica subsp. enterica serovar Typhimurium C77-31
Escherichia coli K99 = test system: Escherichia coli K99
[26] = test system: Candida parapsilosis CGMCC 2.3989
Escherichia coli 987P = test system: Escherichia coli 987P
Escherichia coli K88 = test system: Escherichia coli K88
Shigella sonnei DSM 5570 = test system: Shigella sonnei DSM 5570
[27] = test system: Staphylococcus aureus DSM 11729
[28] = test system: Pseudomonas aeruginosa DSM 1117
[29] = test system: Acinetobacter baumannii AL1851-ΔLpxA
[30] = test system: Acinetobacter baumannii ATCC 19606
[31] = test system: Salmonella enterica DSM 17058
[32] = test system: Klebsiella pneumoniae DSM 789
[33] = test system: Acinetobacter baumannii Al1852-ΔLpxD
[34] = test system: Citrobacter freundii DSM 30029
[35] = test system: Staphylococcus epidermidis DSM 28319
[36] = test system: Escherichia coli DSM 1103
[37] = test system: Bacillus subtilis KCTC 2217
[38] = test system: Acinetobacter baumannii KCTC 2508

In the case of CC(C)C[C@H](NC(=O)[C@H](C)N)C(=O)N[C@@H](Cc1c[nH]c2ccccc12)C(=O)N[C@@H](CCCCN)C(=O)N[C@@H](CCCCN)C(=O)N[C@@H](CC(C)C)C(=O)N[C@@H](CC(C)C)C(=O)N[C@@H](CCCCN)C(=O)N[C@@H](CCCCN)C(=O)N[C@@H](C)C(N)=O [ALWKKLLKKA], the MIC [1] is reported as at least 256 µM, the MIC (Staphylococcus aureus) is reported as over 256 µM and the MIC [2] is reported as 32 µM (≈ 38.3 µg/mL). For the same compound, the MIC [3] was at least 256 µM, the MIC [4] was at least 64 µM and the MIC [5] was 8 µM (≈ 9.58 µg/mL). The MIC [6] was at least 256 µM and the MIC [7] was at least 64 µM.
CC[C@H](C)[C@H](NC(=O)[C@H](CCCCN)NC(=O)[C@@H]1CCCN1C(=O)[C@H](CC(C)C)NC(=O)[C@@H](N)Cc1ccccc1)C(=O)N[C@@H](CC(C)C)C(=O)N[C@@H](CCCN=C(N)N)C(=O)N[C@@H](CCCCN)C(=O)N[C@H](C(=O)N[C@H](C(=O)N[C@@H](CCCN=C(N)N)C(=O)N[C@@H](C)C(=O)N[C@@H](CC(C)C)C(N)=O)C(C)C)[C@@H](C)CC [FLPKILRKIVRAL] showed an MIC [8] of 191 µM (≈ 300 µg/mL), an MIC [2] of over 383 µM and an MIC [9] of 23.9 µM (≈ 37.5 µg/mL). It also gave an MIC [10] of at least 47.9 µM, an MIC [11] of at least 383 µM and an MIC [12] of 23.9 µM (≈ 37.5 µg/mL). For the same compound, the MIC [13] was at least 47.9 µM, the MIC [14] was at least 47.9 µM and the MIC [15] was 23.9 µM (≈ 37.5 µg/mL).
CC[C@H](C)[C@H](NC(=O)[C@H](CCCCN)NC(=O)[C@H](CCCCN)NC(=O)[C@H](CC(C)C)NC(=O)[C@H](CC(C)C)NC(=O)CN)C(=O)N[C@@H](C)C(=O)N[C@@H](CCCCN)C(=O)N[C@@H](CCCCN)C(=O)N[C@@H](C)C(=O)N[C@@H](CCCCN)C(=O)N[C@@H](CCCCN)C(=O)N[C@@H](C)C(=O)N[C@@H](CC(C)C)C(=O)N[C@@H](CCCCN)C(=O)N[C@@H](CCCCN)C(=O)N[C@@H](CC(C)C)C(=O)NCC(=O)N[C@@H](Cc1ccc(O)cc1)C(N)=O [GLLKKIAKKAKKALKKLGY] showed an MIC (Escherichia coli ML-35) of 1 µM (≈ 2.1 µg/mL), an MIC [16] of 2 µM (≈ 4.2 µg/mL) and an MIC [2] of 1 µM (≈ 2.1 µg/mL). For the same compound, the MIC [17] was 4 µM (≈ 8.39 µg/mL) and the MIC (Bacillus megaterium Bm11) was 1 µM (≈ 2.1 µg/mL).
For CC[C@H](C)[C@H](N)C(=O)N[C@@H](Cc1cnc[nH]1)C(=O)N[C@@H](Cc1cnc[nH]1)C(=O)N[C@H](C(=O)N[C@@H](Cc1cnc[nH]1)C(=O)N[C@@H](Cc1cnc[nH]1)C(=O)N[C@H](C(N)=O)[C@@H](C)CC)[C@@H](C)CC [IHHIHHI], the MIC [8] was over 64 µM, the MIC (Escherichia coli UB1005) was at least 64 µM and the MIC [18] was over 64 µM. For the same compound, the MIC [19] was over 64 µM, the MIC [20] was at least 64 µM and the MIC [16] was over 64 µM. For the same compound, the MIC [2] was over 64 µM, the MIC (Escherichia coli 078) was at least 64 µM and the MIC [21] was at least 64 µM. For the same compound, the MIC [22] was over 64 µM, the MIC [23] was at least 64 µM and the MIC [9] was over 64 µM. The MIC [24] was at least 64 µM, the MIC [25] was at least 64 µM and the MIC (Escherichia coli K99) was at least 64 µM. It also gave an MIC [26] of at least 64 µM, an MIC (Escherichia coli 987P) of at least 64 µM and an MIC (Escherichia coli K88) of at least 64 µM.
CC[C@H](C)[C@H](NC(=O)[C@H](CC(=O)O)NC(=O)[C@H](Cc1c[nH]c2ccccc12)NC(=O)[C@H](CCCCN)NC(=O)[C@@H]1CCCN1C(=O)[C@H](CC(C)C)NC(=O)[C@H](CCSC)NC(=O)[C@H](Cc1ccc(O)cc1)NC(=O)[C@H](CC(C)C)NC(=O)[C@H](CC(N)=O)NC(=O)[C@@H](NC(=O)CNC(=O)[C@H](CCCCN)NC(=O)[C@H](Cc1ccccc1)NC(=O)[C@H](Cc1ccccc1)NC(=O)[C@H](CCCCN)NC(=O)[C@H](Cc1ccccc1)NC(=O)[C@H](Cc1ccccc1)NC(=O)[C@H](CCCCN)NC(=O)[C@H](Cc1ccccc1)NC(=O)[C@H](Cc1ccccc1)NC(=O)[C@@H](N)CCCCN)[C@@H](C)O)C(=O)N1CCC[C@H]1C(N)=O [KFFKFFKFFKGTNLYMLPKWDIP] was tested, and the MIC (Shigella sonnei DSM 5570) was 0.25 µM (≈ 0.736 µg/mL), the MIC [27] was at least 32 µM and the MIC [28] was 1 µM (≈ 2.94 µg/mL). The MIC [29] was 0.25 µM (≈ 0.736 µg/mL), the MIC [30] was 0.25 µM (≈ 0.736 µg/mL) and the MIC [31] was 2 µM (≈ 5.89 µg/mL). It also gave an MIC [32] of 0.25 µM (≈ 0.736 µg/mL), an MIC [33] of 0.25 µM (≈ 0.736 µg/mL) and an MIC [34] of 0.5 µM (≈ 1.47 µg/mL). It also gave an MIC [35] of 1 µM (≈ 2.94 µg/mL) and an MIC [36] of 0.5 µM (≈ 1.47 µg/mL).
In the case of CC(C)C[C@H](NC(=O)[C@H](CC(C)C)NC(=O)[C@H](CCCCN)NC(=O)[C@H](CCCCN)NC(=O)[C@H](CC(C)C)NC(=O)[C@H](CC(C)C)NC(=O)[C@@H]1CCCN1C(=O)[C@H](CCCCN)NC(=O)[C@H](CCCCN)NC(=O)[C@H](CC(C)C)NC(=O)[C@H](CC(C)C)NC(=O)[C@H](CCCCN)NC(=O)[C@H](CCCCN)NC(=O)[C@H](Cc1c[nH]c2ccccc12)NC(=O)[C@@H](N)CCCCN)C(=O)N[C@@H](CCCCN)C(N)=O [KWKKLLKKPLLKKLLK], the MIC [19] is reported as 1.56 µM and > 0.78 µM, the MIC [37] is reported as 1.56 µM (≈ 3.13 µg/mL) and the MIC [38] is reported as 3.13 µM (≈ 6.27 µg/mL).
